Assay results taken from US9878007B2, “Syndecan peptides and polypeptides as inhibitors of vascular endothelial growth factor receptor-2 (VEGFR2) and very late antigen-4 (VLA-4)” (Wisconsin Alumni Research Foundation, priority 2015, dated 2018).

Assays:
[1] = test system: CAG myeloma cells; assay: Cell spreading / attachment assay of CAG myeloma cells on FN or VCAM-1; assay type: cell-based, human
Protocol: Nitrocellulose-coated slides were coated for 2 hr at 37° C. with 40 μg/ml FN (kindly provided by Dr. Donna Peters, University of Wisconsin-Madison) or 5 μg/ml recombinant VCAM-1/Fc chimera (R&D Systems) in calcium and magnesium-free PBS (CMF-PBS; 135 mM NaCl, 2.7 mM KCl, 10.2 mM Na2HPO4-7H20 and 1.75 mM KH2PO4, pH7.4). Slides were blocked for 1 hr at 37° C. with RPMI 1640 containing 1% heat-denatured BSA (plating medium). Cells in plating medium were allowed to attach and spread for 2.5 hr at 37° C. Slides were fixed in 4% EM grade paraformaldehyde (Electron Microscopy Sciences) in CMF-PBS and labeled for 30 min in 0.13 μM rhodamine phalloidin (Invitrogen) in CMF-PBS. Coverslips were mounted in non-fluorescing mounting medium (Immumount; Thermo Shandon) and allowed to dry. All images were acquired with a Nikon Microphot FX microscope using a 20× objective (Nikon; Ex 541-551, DM 580, Barrier 590), Photometric CoolSnap ES camera, and version 7.7.3.0 Metamorph© Imaging software (Molecular Devices). All images represent results from triplicate wells and at least three independent experiments.

[2] = target: T1, VLA-4 (Homo sapiens, UniProt P05556+P13612); assay: GST pull down assay: capture of VLA-4 by GST-S1ED; assay type: binding; settings: HPSE^low cell lysates; peptide 30 M [sic]
T1 construct: the α4-integrin (VLA-4), which is expressed on myeloma cells; endogenous in cells; host or cells: CAG human myeloma cells (HPSE^low), whole-cell lysate
T1 sequence (P13612 34-1032): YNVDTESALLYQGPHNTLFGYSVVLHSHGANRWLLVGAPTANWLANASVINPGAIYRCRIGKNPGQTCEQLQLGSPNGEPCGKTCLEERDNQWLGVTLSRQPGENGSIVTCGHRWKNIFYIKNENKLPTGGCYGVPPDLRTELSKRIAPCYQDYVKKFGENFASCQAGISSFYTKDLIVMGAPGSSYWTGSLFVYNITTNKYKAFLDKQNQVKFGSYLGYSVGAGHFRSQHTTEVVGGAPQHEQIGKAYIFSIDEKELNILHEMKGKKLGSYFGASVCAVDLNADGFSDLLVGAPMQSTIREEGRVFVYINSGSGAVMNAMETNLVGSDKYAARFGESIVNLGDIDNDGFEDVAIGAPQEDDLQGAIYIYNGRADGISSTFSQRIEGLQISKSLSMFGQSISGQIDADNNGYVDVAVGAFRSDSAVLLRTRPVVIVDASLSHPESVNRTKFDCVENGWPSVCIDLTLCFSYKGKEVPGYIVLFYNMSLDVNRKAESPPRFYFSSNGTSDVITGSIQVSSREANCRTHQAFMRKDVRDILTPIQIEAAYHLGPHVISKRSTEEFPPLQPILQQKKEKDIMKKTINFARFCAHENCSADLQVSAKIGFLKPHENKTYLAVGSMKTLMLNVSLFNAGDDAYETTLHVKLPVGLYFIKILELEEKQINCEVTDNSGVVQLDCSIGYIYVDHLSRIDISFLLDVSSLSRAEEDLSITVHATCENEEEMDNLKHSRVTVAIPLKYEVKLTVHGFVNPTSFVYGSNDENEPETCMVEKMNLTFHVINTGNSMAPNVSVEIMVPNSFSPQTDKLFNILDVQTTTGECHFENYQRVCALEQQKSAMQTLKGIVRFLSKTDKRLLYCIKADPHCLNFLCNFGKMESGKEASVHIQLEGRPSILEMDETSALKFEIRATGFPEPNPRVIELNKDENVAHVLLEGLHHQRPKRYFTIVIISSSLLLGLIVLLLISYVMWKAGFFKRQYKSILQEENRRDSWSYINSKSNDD
T1 sequence (P05556 21-798): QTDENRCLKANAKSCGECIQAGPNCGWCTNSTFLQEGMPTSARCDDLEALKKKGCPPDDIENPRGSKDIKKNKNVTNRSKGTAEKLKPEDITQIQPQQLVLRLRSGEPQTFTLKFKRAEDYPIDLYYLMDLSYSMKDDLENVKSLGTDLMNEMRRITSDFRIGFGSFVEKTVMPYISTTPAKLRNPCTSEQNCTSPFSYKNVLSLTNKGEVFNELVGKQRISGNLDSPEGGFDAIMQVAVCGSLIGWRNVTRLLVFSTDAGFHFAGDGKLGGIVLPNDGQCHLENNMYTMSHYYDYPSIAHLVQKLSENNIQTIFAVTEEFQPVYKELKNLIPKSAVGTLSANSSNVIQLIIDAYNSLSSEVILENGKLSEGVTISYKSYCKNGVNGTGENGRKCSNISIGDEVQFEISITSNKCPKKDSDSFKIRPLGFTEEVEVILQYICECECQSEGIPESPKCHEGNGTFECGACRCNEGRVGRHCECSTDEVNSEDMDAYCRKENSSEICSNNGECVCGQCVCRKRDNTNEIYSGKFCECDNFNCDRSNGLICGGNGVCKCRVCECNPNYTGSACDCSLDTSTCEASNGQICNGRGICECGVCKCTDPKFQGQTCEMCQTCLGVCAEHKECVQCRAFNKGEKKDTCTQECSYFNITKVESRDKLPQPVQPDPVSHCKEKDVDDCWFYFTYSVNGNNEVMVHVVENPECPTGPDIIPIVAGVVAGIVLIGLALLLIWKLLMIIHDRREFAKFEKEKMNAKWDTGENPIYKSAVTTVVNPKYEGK
Protocol: (§1) FIGS. 6A-G. Peptides derived from the active site in Sdc1 activate or inhibit adhesion and invasion. (FIG. 6A) Transwell migration assays towards FN (for 16 hrs) were performed for HPSE low or high cells in the presence of 0, 0.3, 3, and 30 μM of S1ED^210-240. Cells migrating to the bottom side of the filter were counted from five random images for each treatment. (FIG. 6B) The sequence of S1ED210-240 is shown (SEQ ID NO: 3), as well as […] truncation mutants of the peptide (SEQ ID NOs: 5, 2, 4 and 7). Amino acids shown in red appear necessary for the spreading and invasive activity. (FIG. 6C) Images of HPSE^low and HPSE^high cells plated on FN for 2 hr. (FIG. 6D) HPSE^low cells were treated with 0, 0.3, 3, 10 and 30 μM of S1ED^210-236, S1ED^210-233, or S1ED^214-240, plated on FN for 2 hr, fixed and stained with fluorescent phalloidin. Cells from five random images were quantified for cell attachment and cell spreading. (FIG. 6E) HPSE^high cells were treated with 0, 3, 10, and 30 μM of S1ED^210-236, S1ED^210-233, and S1ED^214-240, plated on FN for 2 hr, then fixed, imaged and quantified as in FIG. 6D. (FIG. 6F) Transwell migration assays towards FN (for 16 hr) were performed for HPSE^low or HPSE^high cells in the presence of 30 μM of S1ED^210-236, S1ED^210-233, S1ED^214-240 and Vandetanib. (FIG. 6G) HPSE^low cell lysates were incubated overnight with glutathione beads coated with GST or GST-S1ED in the absence or presence of 30 μM of S1ED^210-236, S1ED^210-233, and S1ED^214-240. Capture of VLA-4 or VEGFR2 was detected by immunoblotting. Sequences in FIG. 6B are 210-240 (SEQ ID NO: 3), 210-236 (SEQ ID NO: 2), 210-233 (SEQ ID NO: 4), 214-240 (SEQ ID NO: 5) and 214-236 (SEQ ID NO: 7).
(§2) CAG cells were washed with CMF-PBS and then lysed for 20 min on ice in lysis buffer. Cell debris was removed by centrifugation at 13000 rpm for 20 min at 4° C. Whole cell lysates were then incubated at 4° C. overnight with either 3 μM GST or 3 μM GST-S1ED in the absence or presence of 1 μM, 3 μM, and 10 μM S1ED^210-240 peptide. GST or GST-S1ED was captured by addition of glutathione Sepharose and the beads were washed with ice-cold lysis buffer and CMF-PBS, prior to addition of SDS-PAGE sample buffer and analyszed by electrophoresis and western blotting as described previously.

[3] = target: T2, VEGFR2 (Homo sapiens, UniProt P35968); assay: GST pull down assay: capture of VEGFR2 by GST-S1ED; assay type: binding; settings: HPSE^low cell lysates; peptide 30 M [sic]
T2 construct: endogenous in cells; host or cells: CAG human myeloma cells (HPSE^low = empty vector; HPSE^high = human HPSE cDNA)
T2 sequence (P35968 20-1356): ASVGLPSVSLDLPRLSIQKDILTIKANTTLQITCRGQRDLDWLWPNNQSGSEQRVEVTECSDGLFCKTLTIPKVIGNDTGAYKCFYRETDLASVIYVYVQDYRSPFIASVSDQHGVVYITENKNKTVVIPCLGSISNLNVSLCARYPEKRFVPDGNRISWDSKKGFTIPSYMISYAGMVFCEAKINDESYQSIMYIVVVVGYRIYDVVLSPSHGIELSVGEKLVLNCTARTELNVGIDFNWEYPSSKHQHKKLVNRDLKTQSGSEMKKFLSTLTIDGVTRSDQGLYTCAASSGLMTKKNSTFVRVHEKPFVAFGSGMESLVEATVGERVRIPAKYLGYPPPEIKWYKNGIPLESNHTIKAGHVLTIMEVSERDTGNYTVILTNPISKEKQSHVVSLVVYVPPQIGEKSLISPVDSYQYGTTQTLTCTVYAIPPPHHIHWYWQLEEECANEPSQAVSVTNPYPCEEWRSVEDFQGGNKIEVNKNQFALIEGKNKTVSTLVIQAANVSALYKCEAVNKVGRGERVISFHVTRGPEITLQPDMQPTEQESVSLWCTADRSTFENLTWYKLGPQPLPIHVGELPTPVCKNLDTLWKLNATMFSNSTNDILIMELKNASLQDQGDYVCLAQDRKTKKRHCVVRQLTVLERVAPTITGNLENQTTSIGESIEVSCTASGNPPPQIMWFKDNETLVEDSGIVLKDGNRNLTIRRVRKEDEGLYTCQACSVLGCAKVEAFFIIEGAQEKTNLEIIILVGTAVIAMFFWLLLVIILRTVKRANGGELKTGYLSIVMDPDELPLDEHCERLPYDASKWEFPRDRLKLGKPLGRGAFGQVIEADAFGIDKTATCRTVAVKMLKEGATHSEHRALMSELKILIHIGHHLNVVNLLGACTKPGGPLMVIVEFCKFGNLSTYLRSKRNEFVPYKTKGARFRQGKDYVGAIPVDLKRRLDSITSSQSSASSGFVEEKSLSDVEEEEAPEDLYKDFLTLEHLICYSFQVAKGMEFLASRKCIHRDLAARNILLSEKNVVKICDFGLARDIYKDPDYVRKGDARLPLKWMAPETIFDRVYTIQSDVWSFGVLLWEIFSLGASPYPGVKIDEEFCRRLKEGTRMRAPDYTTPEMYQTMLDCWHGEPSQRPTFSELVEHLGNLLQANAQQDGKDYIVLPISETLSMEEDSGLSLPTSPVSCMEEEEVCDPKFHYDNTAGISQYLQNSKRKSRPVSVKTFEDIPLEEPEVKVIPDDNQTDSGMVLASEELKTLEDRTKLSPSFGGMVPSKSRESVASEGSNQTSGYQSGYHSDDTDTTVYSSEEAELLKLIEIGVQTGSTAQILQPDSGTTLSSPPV
Protocol: as §1, §2

[4] = test system: HMEC-1 cells; assay: Attachment and spreading of HMEC-1 cells on IIICS; assay type: cell-based; settings: plated on IIICS; 30 μM peptides, 125 μg/ml SST0001, 10 μg/ml MMP9 blocking antibody
Protocol: (§3) FIGS. 8A-H. HPSE mediated the Sdc1-coupled VEGFR2 complex in endothelial cells induces angiogenesis. (FIG. 8A) Lysates from HPSE^low, HPSE^high and HMEC-1 cells are probed by immunoblotting for expression of HPSE. (FIG. 8B) HMEC-1 cells were seeded at equal density and grown in serum-free media for 24 hr in the absence or presence of 125 μg/ml of the HPSE inhibitor SST0001. After 24 hr, conditioned media were harvested, and the level of shed Sdc1 in the conditioned medium from each condition was determined by immunoblotting. (FIG. 8C) HMEC-1 cell lysate was incubated overnight with glutathione beads coated with GST or GST-S1ED. Capture of VLA-4 or VEGFR2 was detected by immunoblotting. (FIG. 8D) HMEC-1 cells were plated on IIICS for 3 hr and double stained for VLA-4 and Sdc1, VEGFR2 and Sdc1, or VLA-4 and VEGFR2. (FIG. 8E) HMEC-1 cells were treated with DMSO, VLA-4 blocking antibody P1H4, β1-integrin blocking antibody mAb13, 10 μg/ml MMP9 blocking antibody, 125 μg/ml HPSE inhibitor SST0001, Vandetanib, VEGFR2 blocking antibody, 30 μM S1ED^210-233 or 30 μM S1ED^214-240 and then plated on IIICS. Images were taken from random field with 200× magnification for counting attached and spread cells. (FIG. 8F) HMEC-1 cells were plated on IIICS in the presence of 10 μM of S1ED^210-236, S1ED^210-233, S1ED^215-240, and S1ED^214-240. […]

[5] = test system: HMEC-1 cells; assay: Transwell migration / invasion assay of HMEC-1 cells; assay type: cell-based; settings: 16 hr
Protocol: as §3, with “S1ED^214-240. Lysates were probed on immunoblots with antibodies against pY^1175 VEGFR2 and VEGFR2. (FIG. 8G) Transwell migration assays towards IIICS (for 16 hr) were performed for HMEC-1 cells in the presence of P1H4, SST0001, Anti-MMP9, Vandetanib, S1ED^210-236, S1ED^210-233, and S1ED^214-240. Images were taken from random field with 200× magnification for counting migrated cells. (FIG. 8H) A 96-well plate coated with 50 μl Matrigel containing 100 μg/ml IIICS per well was solidified at 37° C. for 2 hrs.” for “S1ED^214-240.”
The bottom chambers of Transwell filter chambers (8 μm pores; Corning) were coated with 40 μg/ml of FN. […] Cells from at least five random fields were counted.

[6] = test system: HMEC-1 cells; assay: In vitro tube formation assay of HMEC-1 cells on Matrigel; assay type: cell-based; settings: 24 hrs, 10 μM peptides
Protocol: FIGS. 8A-H. HPSE mediated the Sdc1-coupled VEGFR2 complex in endothelial cells induces angiogenesis. (FIG. 8A) Lysates from HPSE^low, HPSE^high and HMEC-1 cells are probed by immunoblotting for expression of HPSE. (FIG. 8B) HMEC-1 cells were seeded at equal density and grown in serum-free media for 24 hr in the absence or presence of 125 μg/ml of the HPSE inhibitor SST0001. After 24 hr, conditioned media were harvested, and the level of shed Sdc1 in the conditioned medium from each condition was determined by immunoblotting. (FIG. 8C) HMEC-1 cell lysate was incubated overnight with glutathione beads coated with GST or GST-S1ED. Capture of VLA-4 or VEGFR2 was detected by immunoblotting. (FIG. 8D) HMEC-1 cells were plated on IIICS for 3 hr and double stained for VLA-4 and Sdc1, VEGFR2 and Sdc1, or VLA-4 and VEGFR2. (FIG. 8E) HMEC-1 cells were treated with DMSO, VLA-4 blocking antibody P1H4, β1-integrin blocking antibody mAb13, 10 μg/ml MMP9 blocking antibody, 125 μg/ml HPSE inhibitor SST0001, Vandetanib, VEGFR2 blocking antibody, 30 μM S1ED^210-233 or 30 μM S1ED^214-240 and then plated on IIICS. Images were taken from random field with 200× magnification for counting attached and spread cells. (FIG. 8F) HMEC-1 cells were plated on IIICS in the presence of 10 μM of S1ED^210-236, S1ED^210-233, S1ED^215-240, and S1ED^214-240. Lysates were probed on immunoblots with antibodies against pY^1175 VEGFR2 and VEGFR2. (FIG. 8G) Transwell migration assays towards IIICS (for 16 hr) were performed for HMEC-1 cells in the presence of P1H4, SST0001, Anti-MMP9, Vandetanib, S1ED^210-236, S1ED^210-233, and S1ED^214-240. Images were taken from random field with 200× magnification for counting migrated cells. (FIG. 8H) A 96-well plate coated with 50 μl Matrigel containing 100 μg/ml IIICS per well was solidified at 37° C. for 2 hrs. HMEC-1 cells (2.5×10^4 cells/well) were seeded into the plate and cultured in media containing VEGF, SST0001, 10 μM of S1ED^210-236, S1ED^210-233, S1ED^215-240, and S1ED^214-240 for 24 hrs. Enclosed capillary networks of tubes were taken from random field with 200× magnification.

[7] = test system: CAG myeloma cells; assay: Cell spreading / attachment assay of CAG myeloma cells on FN or VCAM-1; assay type: cell-based, human; remark: listed apart in the source
[8] = on FN, 2 hr, 0, 3, 10 and 30 μM peptide

Row | competition for capture of VLA-4 by GST-S1ED [2] | competition for capture of VEGFR2 by GST-S1ED [3] | Molecule | induction of HPSE^low cell spreading by S1ED peptides ([1]; on VCAM-1, 0.3 μM peptide) | VLA-4 dependent spreading of HMEC-1 cells [4] | invasion of HMEC-1 cells [5] | tube formation by HMEC-1 cells [6] | HPSE^low cell spreading ([7]; on FN, 2 hr, 0, 0.3, 3, 10 and 30 μM peptide) | HPSE^high cell adhesion [7, 8] | HPSE^high cell spreading [7, 8] | HPSE^low cell adhesion ([7]; on FN, 2 hr, high concentrations (30 μM)) | induction of HPSE^low cell spreading by VEGF ([7]; 20 ng/ml VEGF) | induction of HPSE^low cell spreading ([1]; heparinase III pre-treatment before plating on FN and VCAM-1)
1 | only competes for capture of VEGFR2 | only competes for capture of VEGFR2 | S1ED^214-240: syndecan-1 ectodomain peptide, residues 214-240 (SEQ ID NO: 5) (ETSGENTAVVAVEPDRRNQSPVDQGAT) | do not | prevented | all block invasion | blocks tube formation | does not cause cell spreading | has no effect on cell adhesion | blocks the spreading of HPSE^high cells | does not cause cell spreading or block adhesion | – | –
2 | – | – | VEGF [reference compound] | – | – | – | not enhanced by VEGF | – | – | – | – | failed to induce spreading of the cells | –
3 | – | – | HPIII: heparinase III, a bacterial enzyme that completely degrades the HS (protein, UniProt Q59289 25-659, looked up) Heparin-sulfate lyase: QSSSITRKDFDHINLEYSGLEKVNKAVAAGNYDDAAKALLAYYREKSKAREPDFSNAEKPADIRQPIDKVTREMADKALVHQFQPHKGYGYFDYGKDINWQMWPVKDNEVRWQLHRVKWWQAMALVYHATGDEKYAREWVYQYSDWARKNPLGLSQDNDKFVWRPLEVSDRVQSLPPTFSLFVNSPAFTPAFLMEFLNSYHQQADYLSTHYAEQGNHRLFEAQRNLFAGVSFPEFKDSPRWRQTGISVLNTEIKKQVYADGMQFELSPIYHVAAIDIFLKAYGSAKRVNLEKEFPQSYVQTVENMIMALISISLPDYNTPMFGDSWITDKNFRMAQFASWARVFPANQAIKYFATDGKQGKAPNFLSKALSNAGFYTFRSGWDKNATVMVLKASPPGEFHAQPDNGTFELFIKGRNFTPDAGVFVYSGDEAIMKLRNWYRQTRIHSTLTLDNQNMVITKARQNKWETGNNLDVLTYTNPSYPNLDHQRSVLFINKKYFLVIDRAIGEATGNLGVHWQLKEDSNPVFDKTKNRVYTTYRDGNNLMIQSLNADRTSLNEEEGKVSYVYNKELKRPAFVFEKPKKNAGTQNFVSIVYPYDGQKAPEISIRENKGNDFEKGKLNLTLTINGKQQLVLVP | – | – | – | – | – | – | – | – | – | induces spreading of HPSE^low cells comparable to that observed for HPSE^high cells
